Assay results taken from ChEMBL document CHEMBL1201862, “PubChem BioAssay data set” (2004).
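Dose response: 5 concentrations. Exposure: 48 h. Format: 96-well plates. Endpoint: linear interpolation; highest concentration if not reached. GI50: concentration for 50% inhibition of growth.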 Calls of active or inactive are those of the source. Rule as the data show it: active = GI50 up to about 1.1 µM and inactive = higher.

Key:
Test in all cases: DTP human tumour cell line panel, 48 h
UO-31 = system: UO-31
DU-145 = system: DU-145
KM12 = system: KM12
PC-3 = system: PC-3
SF-295 = system: SF-295
T47D = system: T47D
MDA-MB-435 = system: MDA-MB-435
NCI-H460 = system: NCI-H460
K562 = system: K562
IGROV-1 = system: IGROV-1
OVCAR-3 = system: OVCAR-3
RXF 393 = system: RXF 393
786-0 = system: 786-0
MCF7 = system: MCF7
UACC-257 = system: UACC-257
Hs-578T = system: Hs-578T
HCT-15 = system: HCT-15
SW-620 = system: SW-620
NCI-H522 = system: NCI-H522

Structure (SMILES) | GI50 (UO-31) | GI50 (DU-145) | GI50 (KM12) | GI50 (PC-3) | GI50 (SF-295) | GI50 (T47D) | GI50 (MDA-MB-435) | GI50 (NCI-H460) | GI50 (K562) | GI50 (IGROV-1) | GI50 (OVCAR-3) | GI50 (RXF 393) | GI50 (786-0) | GI50 (MCF7) | GI50 (UACC-257) | GI50 (Hs-578T) | GI50 (HCT-15) [µM] | GI50 (SW-620) | GI50 (NCI-H522)
O=C(O)C1C2OC(C(Br)C2Br)C1C(=O)O (stereo not given) | > 100 µM (inactive) | > 100 µM (inactive) | > 100 µM (inactive) | > 100 µM (inactive) | > 100 µM (inactive) | > 100 µM (inactive) | > 100 µM (inactive) | > 100 µM (inactive) | > 100 µM (inactive) | > 100 µM (inactive) | > 100 µM (inactive) | > 100 µM (inactive) | > 100 µM (inactive) | > 100 µM (inactive) | > 100 µM (inactive) | 24.7 µM (inactive) | > 100 | > 100 µM (inactive) | > 100 µM (inactive)
O=C1c2ccccc2-c2c1c1ccccc1c(=O)n2-c1ccccc1 | 5.64 µM (inactive) | 59.7 µM (inactive) | 14.6 µM (inactive) | > 81.5 µM (inactive) | 10.1 µM (inactive) | 15.8 µM (inactive) | > 100 µM (inactive) | 6.56 µM (inactive) | > 60.1 µM (inactive) | 13.8 µM (inactive) | 14.4 µM (inactive) | 4.59 µM (inactive) | 3.07 µM (inactive) | 19.3 µM (inactive) | > 82.4 µM (inactive) | 8.36 µM (inactive) | 27.9 | 35.4 µM (inactive) | 18.2 µM (inactive)
CN(C1=NS(=O)(=O)N=C(N(C)c2ccccc2)O1)c1ccccc1 | 21.4 µM (inactive) | 21.9 µM (inactive) | 17.8 µM (inactive) | > 100 µM (inactive) | 21.8 µM (inactive) | 21.2 µM (inactive) | 13.8 µM (inactive) | 21.8 µM (inactive) | 17.7 µM (inactive) | 23.3 µM (inactive) | 20.3 µM (inactive) | 3.55 µM (inactive) | 24.9 µM (inactive) | 15 µM (inactive) | 19.1 µM (inactive) | 27.7 µM (inactive) | 15.1 | 14 µM (inactive) | 18.5 µM (inactive)
O=S(=O)(NNc1ccccc1)c1ccccc1 | 10.6 µM (inactive) | 13.2 µM (inactive) | 1.66 µM (inactive) | 8.15 µM (inactive) | 0.646 µM (active) | 12.6 µM (inactive) | 4.81 µM (inactive) | 3.96 µM (inactive) | 4.23 µM (inactive) | 10.2 µM (inactive) | 11.3 µM (inactive) | 7.73 µM (inactive) | 52.6 µM (inactive) | 14.9 µM (inactive) | 27.5 µM (inactive) | 61 µM (inactive) | 11.5 | 26.3 µM (inactive) | 8.95 µM (inactive)
C=C(Cl)COC(=O)Nc1cccc(Cl)c1 | 12 µM (inactive) | 31.1 µM (inactive) | 31.6 µM (inactive) | 29 µM (inactive) | 25.7 µM (inactive) | 22.9 µM (inactive) | 30.1 µM (inactive) | 32.6 µM (inactive) | 54.6 µM (inactive) | 26.7 µM (inactive) | 28.1 µM (inactive) | 25 µM (inactive) | 27.4 µM (inactive) | 28.1 µM (inactive) | 31 µM (inactive) | 34 µM (inactive) | 28.6 | 39.3 µM (inactive) | 25.1 µM (inactive)
COc1ccccc1NC(=S)Nc1cccc(C)n1 | > 100 µM (inactive) | > 100 µM (inactive) | 25.6 µM (inactive) | > 100 µM (inactive) | 69 µM (inactive) | > 100 µM (inactive) | > 100 µM (inactive) | > 100 µM (inactive) | > 100 µM (inactive) | 31.8 µM (inactive) | > 100 µM (inactive) | > 100 µM (inactive) | 79.3 µM (inactive) | > 100 µM (inactive) | > 100 µM (inactive) | 37.2 µM (inactive) | > 100 | > 100 µM (inactive) | 2.84 µM (inactive)
CC(=O)N(O)[C@@H]1CC[C@H](n2cnc3c(N)ncnc32)C1 | > 100 µM (inactive) | > 100 µM (inactive) | > 100 µM (inactive) | > 100 µM (inactive) | > 100 µM (inactive) | > 100 µM (inactive) | > 100 µM (inactive) | > 100 µM (inactive) | > 100 µM (inactive) | > 100 µM (inactive) | > 100 µM (inactive) | > 100 µM (inactive) | > 100 µM (inactive) | > 100 µM (inactive) | > 100 µM (inactive) | > 100 µM (inactive) | > 100 | > 100 µM (inactive) | > 100 µM (inactive)
CCCCCC(=O)OC[n+]1ccc2c(C)c3[nH]c4ccc(OC)cc4c3c(C)c2c1 | 0.625 µM (active) | 0.505 µM (active) | 0.225 µM (active) | 0.193 µM (active) | 0.395 µM (active) | 1.02 µM (active) | 0.499 µM (active) | 0.0325 µM (active) | 0.0632 µM (active) | 0.234 µM (active) | > 100 µM (inactive) | 0.208 µM (active) | 0.0843 µM (active) | 0.225 µM (active) | 1.28 µM (inactive) | 1.11 µM (active) | 0.169 | 0.0735 µM (active) | 0.566 µM (active)
CN(CCCNCc1ccccn1)Cc1ccccc1O | 3.73 µM (inactive) | 40.1 µM (inactive) | 28.5 µM (inactive) | 65.3 µM (inactive) | 20.4 µM (inactive) | 34 µM (inactive) | 44.4 µM (inactive) | 7.19 µM (inactive) | 39.8 µM (inactive) | 20.2 µM (inactive) | 24.9 µM (inactive) | 16.7 µM (inactive) | 52.7 µM (inactive) | 43 µM (inactive) | 24.3 µM (inactive) | > 100 µM (inactive) | 6.4 | > 100 µM (inactive) | 56.2 µM (inactive)
O=C1Nc2ccccc2/C1=C1/Nc2ccccc2/C1=N\OCCNCC(O)C(O)C(O)C(O)CO (stereo not given) | > 50 µM (inactive) | 21.2 µM (inactive) | 5.14 µM (inactive) | 10.2 µM (inactive) | 30.7 µM (inactive) | 6.7 µM (inactive) | 9.86 µM (inactive) | 18.1 µM (inactive) | 16.3 µM (inactive) | 6.62 µM (inactive) | 11.6 µM (inactive) | 12.5 µM (inactive) | 18.1 µM (inactive) | 12.4 µM (inactive) | 13.5 µM (inactive) | 13.4 µM (inactive) | > 50 | 15.9 µM (inactive) | 13.4 µM (inactive)
Cc1ccc(S(=O)(=O)N(CC(O)COc2ccccc2)c2ccccc2Cl)cc1 (stereo not given) | 12.2 µM (inactive) | 28.8 µM (inactive) | 14.6 µM (inactive) | 15.9 µM (inactive) | 24.3 µM (inactive) | 24.9 µM (inactive) | 15.6 µM (inactive) | 17 µM (inactive) | 11.6 µM (inactive) | 12.5 µM (inactive) | 19 µM (inactive) | 16 µM (inactive) | 18.4 µM (inactive) | 20.5 µM (inactive) | 14.7 µM (inactive) | 10.9 µM (inactive) | 15.8 | 17.8 µM (inactive) | 12.4 µM (inactive)
O=C1C=CC(=O)c2c(O)c(N(CCCl)CCCl)c(Cl)c(O)c21 | > 5.75 µM (inactive) | > 8.63 µM (inactive) | 6.4 µM (inactive) | 5.47 µM (inactive) | > 10 µM (inactive) | 4.71 µM (inactive) | 4.31 µM (inactive) | 5.02 µM (inactive) | 4.79 µM (inactive) | > 6.68 µM (inactive) | 4.74 µM (inactive) | > 5.2 µM (inactive) | 4.54 µM (inactive) | 5.07 µM (inactive) | 3.3 µM (inactive) | 6.25 µM (inactive) | 5.45 | 3.75 µM (inactive) | 3.74 µM (inactive)
COc1ccc(CNc2nc3ccccc3nc2C(=O)O)cc1OC | 36.5 µM (inactive) | > 100 µM (inactive) | > 100 µM (inactive) | > 100 µM (inactive) | > 100 µM (inactive) | > 100 µM (inactive) | > 100 µM (inactive) | > 100 µM (inactive) | > 100 µM (inactive) | > 100 µM (inactive) | > 100 µM (inactive) | > 100 µM (inactive) | > 100 µM (inactive) | > 100 µM (inactive) | > 100 µM (inactive) | > 100 µM (inactive) | 83.8 | > 100 µM (inactive) | > 100 µM (inactive)
CC1(C)[C@@H]2C[C@H]1c1cnc(-c3ccccn3)cc1C2[C@@H]1c2cc(-c3ccccn3)ncc2[C@@H]2C[C@H]1C2(C)C (stereo not given in full) | 24.3 µM (inactive) | > 100 µM (inactive) | 33.3 µM (inactive) | 73.6 µM (inactive) | 34.5 µM (inactive) | 55.1 µM (inactive) | 76 µM (inactive) | 2.77 µM (inactive) | 22.6 µM (inactive) | 25.2 µM (inactive) | 43.6 µM (inactive) | > 100 µM (inactive) | 86.1 µM (inactive) | 53 µM (inactive) | 87.9 µM (inactive) | > 100 µM (inactive) | 24.5 | 84.3 µM (inactive) | 25.3 µM (inactive)
CC(C)OC(=O)c1cc(NC(=S)OC(C)C)ccc1Cl | 20.8 µM (inactive) | 30.1 µM (inactive) | 13.8 µM (inactive) | 23.7 µM (inactive) | 18.5 µM (inactive) | 23 µM (inactive) | 17.1 µM (inactive) | > 39 µM (inactive) | 30.4 µM (inactive) | 28.8 µM (inactive) | 25.6 µM (inactive) | 22.3 µM (inactive) | 23.4 µM (inactive) | 20.9 µM (inactive) | 21.1 µM (inactive) | 17.1 µM (inactive) | 21.6 | 28.4 µM (inactive) | 13.2 µM (inactive)
